“And” between values parts separate entries of the source, which are not always exact repeats. Equal entries are not always repeated.
Tests used:
[1] = test system: MUC5AC; experiment: Inhibition of TNF-alpha induced MUC5AC mRNA expression in H292 cells (qRT-PCR); assay type: cell-based, human; conditions: TNF-α 20 ng/ml
Experimental: In order to determine the inhibitory effect on the expression of MUC5AC induced by TNF-alpha in H292 cell line, following test was performed:
The isolation of total RNA, cDNA synthesis and quantitative real-time PCR were performed by the method disclosed in the literature (Kim et al., J. Cell. Biochem. 2008, 104, 1906-1917).
In summary, total RNA was isolated using by TRIzol reagent (155596-026, Life Technologies) and the first strand cDNA was synthesized using by enzyme (Omniscript Reverse Transcriptase, 205113, Qiagen, Calif.). The quantitative real-time PCR amplification was performed using by apparatus 1 (S1000 Thermal cycler, Bio-rad, USA) and apparatus 2 (2× Greenstar master mix, Bioneer, Korea) according to the manufacture's manual.
Specifically, the reproduced amount of TNF-alpha induced MUC5AC was determined by Real-time polymerase chain reaction (real-time PCR), quantitative real time polymerase chain reaction (qPCR) and MUC5AC immunoassay. H292 cells were inoculated into 48 well plates in a concentration of 2×10^4 cells/well to adhere for 24 hours and the culture medium was replaced with new 0.1% FBS containing medium to culture for 24 hours. […]
In order to extract total RNA, RNA was extracted using by Trizol B (Invitrogen) and cDNA was synthesized using by Omniscript RT kit (Qiagen, GmbH, Hilden, Germany) after the quantification.

[2] = test system: COPD induced mice; experiment: Anti-COPD effect in cigarette smoke + LPS COPD mouse model; assay type: in vivo, C57BL/6N mouse; conditions: for activity of neutrophils elastase enzyme in BALF comparing with COPD induced group / reduced level of ROS in BALF comparing with COPD induced group / reduced level of neutrophils in BALF comparing with COPD induced group / reduced level of proteins in BALF comparing with COPD induced group / reduced level of IL-6 in BALF comparing with COPD induced group / reduced level of TNF-alpha in BALF comparing with COPD induced group: COPD mice; for reduced level of IL-6 in BALF comparing with COPD induced group / reduced level of TNF-alpha in BALF comparing with COPD induced group: ELISA
Experimental: In order to determine the anti-COPD effect of inventive compounds in COPD animal model, following test was performed by using COPD induced mice as disclosed in the literature (Bhaysar, T. et al., J. Chronic Obstr. […]. Dis., 2008, 3, 477-481). Specific pathogen-free male C57BL/6N mouse (about 22-24 g), aged 6 weeks, which were routinely screened serologically for relevant respiratory pathogens, were purchased from Koatech Co. (koatech.co.kr, Seoul, Korea) and bred allowing to access freely to feed (antibiotic free, Samyang Oil & Feed Corp., Korea) and water in breeding room controlling the temperature of 22±2° C., and humidity of 55±15% at the light-dark cycle for 12 hours and acclimated with the experimental environment for 1 week. 2 kinds of test samples, […] ingredient: Roflumilast, 10 mg/kg) were dissolved in 0.5% sodium carboxymethyl cellulose ([…], Sigma-Aldrich, USA) and used as test samples. KS534, and Rolflumilast (ROF 11-492, HETERO, India) were orally administrated to the mice, 1 hour before prior the intratracheal instillation (i.t.). 3R4F Kentuchy Reference Cigarettes ([…], USA) was used as a standard cigarette for generating a cigarette smoke. The cigarette containing 9.4 mg of tar, 11 mg of TPM (total particle matter) and 12 mg of carbon monooxide per piece, was used after harmonizing with the temperature of 22±1° C. and humidity of 60±2% after opening for 48-72 hrs. The exposure of cigarette smoke was performed by using a cigarette smoke generator (DBL Co. Ltd., dhbiolink.com, Korea). The mice were divided into five groups: normal (NC), COPD (cigarette smoke with LPS intranasal instillation), Rof (10 mg/kg of roflumilast, p.o.+cigarette smoke with LPS intranasal instillation), and KS534-15 and 30 (15 mg/kg and 30 mg/kg of KS534, p.o.+cigarette smoke with LPS instillation, respectively). Exposure of cigarette smoke (one puff/min, 35 ml puff volume over 2 s, every 60 s, 8 cigarettes per day) was conducted using a cigarette smoke generator. The mice received 1 h of cigarette smoke exposure in an exposure chamber (50 cm×30 cm×30 cm) for 3 days. Roflumilast and piscroside C were administered to mice by oral lavage 1 h before cigarette smoke exposure for 3 days. LPS was intranasally instilled ([…] dissolved in 50 μL distilled water) under anesthesia 1 h after the final exposure to cigarette smoke. After the end of experiment, the blood, BALF, and pneumonocyte of each rat were isolated and collected to test. After finishing the experiment, rats were anaesthetized with Zoleti150 (3VX9, Virbac, France, p.o) and the blood was delivered through caudal veins. In order to isolate BALF from lung, the bronchus of right lung was ligated with suture and then performed to tracheostomy. IV-use catheter (16 GA, 3S-Cath, Dukwoo, Korea) was put into the bronchus, and both of bronchus and catheter (16 GA, 3S-Cath, Dukwoo, Korea) were fixed with suture. The injector containing 1 ml of DPBS 0.7 (Dubecco's phosphate-buffered saline, Invitrogen, USA) was connected thereto and DPBS was forced to circulate three times to isolate BALF. The right lung ligated with suture was isolated, fixed with 10% neutral formalin solution, and the remaining lung tissue was reserved in refrigerator at -70° C. The isolated BALF was centrifuged for 15 mins at 1500 rpm to prepare cell pellet and the supernatant was reserved in refrigerator at -70° C. for cytokine analysis. The cell pellet was suspended in DPBS, and the cell was attached to a slide glass using by cytospin centrifuge (CS03270047, Hanil, Korea). Diff-Quik staining (ZS1003, Sysmex, Japan) was performed and the cell was observed by optical microscopy (DM1000, Leica, German) to count the number of immunocyte in each test sample. The level of ROS in BALF isolated from the mice was determined by DCF-DA (dihydrodo chloro fluoresce indiacetate, 35854, Sigma-Aldrich, USA) and the final concentration of DCF-DA was adjusted to 20 μm in 200 μL to incubate 30 mins. […]

O=C(CO)O[C@@H]1O[C@@H]2C[C@H]3[C@H](OC(=O)c4ccc(O)c(O)c4)[C@@H](Cl)[C@@](O)(CO2)[C@@H]13 [KS-534, (3R,5S,5aS,6R,7S,8R,8aS)-8-chloro-8a-hydroxy-5-(2-hydroxyacetoxy) hexahydro-1H-3,6-methanocyclopenta[e][1,3]dioxepin-7-yl3,4-dihydroxybenzoate]
Expressed level of MUC5AC mRNA (Relative % comparing with that in TNF-alpha treatment group) ([1]; 10 μM): 58.47% and 58.47 ± 18.50% | Inhibitory ratio (%) of MUC5AC mRNA expression ([1]; 10 μm): 41.52% | activity of neutrophils elastase enzyme in BALF comparing with COPD induced group ([2]; 15 mg/kg p.o.): remarkably reduced | reduced level of ROS in BALF comparing with COPD induced group ([2]; 15 mg/kg p.o.): 19.5% | reduced level of neutrophils in BALF comparing with COPD induced group ([2]; 15 mg/kg p.o.): 26.3% | reduced level of proteins in BALF comparing with COPD induced group ([2]; 15 mg/kg p.o.): 20.8% | reduced level of IL-6 in BALF comparing with COPD induced group ([2]; 15 mg/kg p.o.): 35.8% | reduced level of TNF-alpha in BALF comparing with COPD induced group ([2]; 15 mg/kg p.o.): 18.3% | activity of neutrophils elastase enzyme in BALF comparing with COPD induced group ([2]; 30 mg/kg p.o.): remarkably reduced | reduced level of ROS in BALF comparing with COPD induced group ([2]; 30 mg/kg p.o.): 27.5% | reduced level of neutrophils in BALF comparing with COPD induced group ([2]; 30 mg/kg p.o.): 25.7% | reduced level of proteins in BALF comparing with COPD induced group ([2]; 30 mg/kg p.o.): 28.5% | invasion of the inflamed cells in lung tissue (histology) ([2]; 30 mg/kg p.o., COPD mice (FIG. 14)): significantly reduced | reduced level of IL-6 in BALF comparing with COPD induced group ([2]; 30 mg/kg p.o.): 50.6% | reduced level of TNF-alpha in BALF comparing with COPD induced group ([2]; 30 mg/kg p.o.): 27.6%

Source: patent US20170217982A1, “Compound isolated from Pseudolysimachion rotundum var. subintegrum, the composition comprising the same for treating allergic disease, inflammatory disease, asthma or chronic obstructive pulmonary disease and the use thereof” (YUNGJIN PHARMACEUTICAL CO., LTD, priority 2014, published 2017)
